In paper PMC10905675, “INX-315, a Selective CDK2 Inhibitor, Induces Cell Cycle Arrest and Senescence in Solid Tumors” (Cancer Discovery, 2023):

Assays:
Experiment in all cases: SelectScreen ZLYTE
Assay type in all cases: biochemical
Details in all cases: INX-0315 at 100nM
CDC42 BPG (MRCKG) = biological target: T1, CDC42 BPG (MRCKG) (Homo sapiens, UniProt Q6DT37)
T1 construct: purchased Thermo Fisher Scientific SelectScreen (plus Nanosyn / Reaction Biology for CDK/cyclin lines)
Procedure, shortened: (§1)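 Both platform types ran at predefined settings. Inhibitor was applied first at 100 nmol/L (1% DMSO), later in ten-point titrations spanning 1 µmol/L to 0.0495 nmol/L.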

GRK4 = biological target: T2, GRK4 (Homo sapiens, UniProt P32298)
T2 construct: purchased Thermo Fisher Scientific SelectScreen (plus Nanosyn / Reaction Biology for CDK/cyclin lines)
Procedure, shortened: as §1

PTK6 (Brk) = biological target: T3, PTK6 (Brk) (Homo sapiens, UniProt Q13882)
T3 construct: purchased Thermo Fisher Scientific SelectScreen (plus Nanosyn / Reaction Biology for CDK/cyclin lines)
Procedure, shortened: as §1

SRC = biological target: T4, SRC (Homo sapiens, UniProt P12931)
T4 construct: purchased Thermo Fisher Scientific SelectScreen (plus Nanosyn / Reaction Biology for CDK/cyclin lines)
Procedure, shortened: as §1

DYRK1A = biological target: T5, DYRK1A (Homo sapiens, UniProt Q13627)
T5 construct: purchased Thermo Fisher Scientific SelectScreen (plus Nanosyn / Reaction Biology for CDK/cyclin lines)
Procedure, shortened: as §1

PDGFRA D842V = biological target: T6, PDGFRA D842V (Homo sapiens, UniProt P16234, D842V)
T6 construct: purchased Thermo Fisher Scientific SelectScreen (plus Nanosyn / Reaction Biology for CDK/cyclin lines)
Procedure, shortened: as §1

CDK2/cyclin A = biological target: T7, CDK2/cyclin A (Homo sapiens, UniProt P24941)
T7 construct: purchased Thermo Fisher Scientific SelectScreen (plus Nanosyn / Reaction Biology for CDK/cyclin lines)
Procedure, shortened: as §1

PHKG1 = biological target: T8, PHKG1 (Homo sapiens, UniProt Q16816)
T8 construct: purchased Thermo Fisher Scientific SelectScreen (plus Nanosyn / Reaction Biology for CDK/cyclin lines)
Procedure, shortened: as §1

STK22D (TSSK1) = biological target: T9, STK22D (TSSK1) (Homo sapiens, UniProt Q9BXA7)
T9 construct: purchased Thermo Fisher Scientific SelectScreen (plus Nanosyn / Reaction Biology for CDK/cyclin lines)
Procedure, shortened: as §1

NEK4 = biological target: T10, NEK4 (Homo sapiens, UniProt P51957)
T10 construct: purchased Thermo Fisher Scientific SelectScreen (plus Nanosyn / Reaction Biology for CDK/cyclin lines)
Procedure, shortened: as §1

CDK1/cyclin B = biological target: T11, CDK1/cyclin B (Homo sapiens, UniProt P06493)
T11 construct: purchased Thermo Fisher Scientific SelectScreen (plus Nanosyn / Reaction Biology for CDK/cyclin lines)
Procedure, shortened: as §1

KIT V559D V654A = biological target: T12, KIT V559D V654A (Homo sapiens, UniProt P10721, V559D/V654A)
T12 construct: purchased Thermo Fisher Scientific SelectScreen (plus Nanosyn / Reaction Biology for CDK/cyclin lines)
Procedure, shortened: as §1

FGFR3 = biological target: T13, FGFR3 (Homo sapiens, UniProt P22607)
T13 construct: purchased Thermo Fisher Scientific SelectScreen (plus Nanosyn / Reaction Biology for CDK/cyclin lines)
Procedure, shortened: as §1

PAK4 = biological target: T14, PAK4 (Homo sapiens, UniProt O96013)
T14 construct: purchased Thermo Fisher Scientific SelectScreen (plus Nanosyn / Reaction Biology for CDK/cyclin lines)
Procedure, shortened: as §1

KSR2 = biological target: T15, KSR2 (Homo sapiens, UniProt Q6VAB6)
T15 construct: purchased Thermo Fisher Scientific SelectScreen (plus Nanosyn / Reaction Biology for CDK/cyclin lines)
Procedure, shortened: as §1

RET V804E = biological target: T16, RET V804E (Homo sapiens, UniProt P07949, V804E)
T16 construct: purchased Thermo Fisher Scientific SelectScreen (plus Nanosyn / Reaction Biology for CDK/cyclin lines)
Procedure, shortened: as §1

CSNK2A1 (CK2 alpha 1) = biological target: T17, CSNK2A1 (CK2 alpha 1) (Homo sapiens, UniProt P68400)
T17 construct: purchased Thermo Fisher Scientific SelectScreen (plus Nanosyn / Reaction Biology for CDK/cyclin lines)
Procedure, shortened: as §1

ABL1 F317L = biological target: T18, ABL1 F317L (Homo sapiens, UniProt P00519, F317L)
T18 construct: purchased Thermo Fisher Scientific SelectScreen (plus Nanosyn / Reaction Biology for CDK/cyclin lines)
Procedure, shortened: as §1

MARK4 = biological target: T19, MARK4 (Homo sapiens, UniProt Q96L34)
T19 construct: purchased Thermo Fisher Scientific SelectScreen (plus Nanosyn / Reaction Biology for CDK/cyclin lines)
Procedure, shortened: as §1

BRAF V599E = biological target: T20, BRAF V599E (Homo sapiens, UniProt P15056, V600E)
T20 construct: purchased Thermo Fisher Scientific SelectScreen (plus Nanosyn / Reaction Biology for CDK/cyclin lines)
Procedure, shortened: as §1

FGFR3 K650E = biological target: T21, FGFR3 K650E (Homo sapiens, UniProt P22607, K650E)
T21 construct: purchased Thermo Fisher Scientific SelectScreen (plus Nanosyn / Reaction Biology for CDK/cyclin lines)
Procedure, shortened: as §1

EGFR (ErbB1) C797S = biological target: T22, EGFR (ErbB1) C797S (Homo sapiens, UniProt P00533, C797S)
T22 construct: purchased Thermo Fisher Scientific SelectScreen (plus Nanosyn / Reaction Biology for CDK/cyclin lines)
Procedure, shortened: as §1

FES (FPS) = biological target: T23, FES (FPS) (Homo sapiens, UniProt P07332)
T23 construct: purchased Thermo Fisher Scientific SelectScreen (plus Nanosyn / Reaction Biology for CDK/cyclin lines)
Procedure, shortened: as §1

BRSK1 (SAD1) = biological target: T24, BRSK1 (SAD1) (Homo sapiens, UniProt Q8TDC3)
T24 construct: purchased Thermo Fisher Scientific SelectScreen (plus Nanosyn / Reaction Biology for CDK/cyclin lines)
Procedure, shortened: as §1

PEAK1 = biological target: T25, PEAK1 (Homo sapiens, UniProt Q9H792)
T25 construct: purchased Thermo Fisher Scientific SelectScreen (plus Nanosyn / Reaction Biology for CDK/cyclin lines)
Procedure, shortened: as §1

NEK9 = biological target: T26, NEK9 (Homo sapiens, UniProt Q8TD19)
T26 construct: purchased Thermo Fisher Scientific SelectScreen (plus Nanosyn / Reaction Biology for CDK/cyclin lines)
Procedure, shortened: as §1

FLT4 (VEGFR3) = biological target: T27, FLT4 (VEGFR3) (Homo sapiens, UniProt P35916)
T27 construct: purchased Thermo Fisher Scientific SelectScreen (plus Nanosyn / Reaction Biology for CDK/cyclin lines)
Procedure, shortened: as §1

PDGFRA T674I = biological target: T28, PDGFRA T674I (Homo sapiens, UniProt P16234, T674I)
T28 construct: purchased Thermo Fisher Scientific SelectScreen (plus Nanosyn / Reaction Biology for CDK/cyclin lines)
Procedure, shortened: as §1

CSNK1G2 (CK1 gamma 2) = biological target: T29, CSNK1G2 (CK1 gamma 2) (Homo sapiens, UniProt P78368)
T29 construct: purchased Thermo Fisher Scientific SelectScreen (plus Nanosyn / Reaction Biology for CDK/cyclin lines)
Procedure, shortened: as §1

MAP3K19 (YSK4) = biological target: T30, MAP3K19 (YSK4) (Homo sapiens, UniProt Q56UN5)
T30 construct: purchased Thermo Fisher Scientific SelectScreen (plus Nanosyn / Reaction Biology for CDK/cyclin lines)
Procedure, shortened: as §1

MERTK (cMER) = biological target: T31, MERTK (cMER) (Homo sapiens, UniProt Q12866)
T31 construct: purchased Thermo Fisher Scientific SelectScreen (plus Nanosyn / Reaction Biology for CDK/cyclin lines)
Procedure, shortened: as §1

SGK (SGK1) = biological target: T32, SGK (SGK1) (Homo sapiens, UniProt O00141)
T32 construct: purchased Thermo Fisher Scientific SelectScreen (plus Nanosyn / Reaction Biology for CDK/cyclin lines)
Procedure, shortened: as §1

EEF2K = biological target: T33, EEF2K (Homo sapiens, UniProt O00418)
T33 construct: purchased Thermo Fisher Scientific SelectScreen (plus Nanosyn / Reaction Biology for CDK/cyclin lines)
Procedure, shortened: as §1

PRKCE (PKC epsilon) = biological target: T34, PRKCE (PKC epsilon) (Homo sapiens, UniProt Q02156)
T34 construct: purchased Thermo Fisher Scientific SelectScreen (plus Nanosyn / Reaction Biology for CDK/cyclin lines)
Procedure, shortened: as §1

SBK1 = biological target: T35, SBK1 (Homo sapiens, UniProt Q52WX2)
T35 construct: purchased Thermo Fisher Scientific SelectScreen (plus Nanosyn / Reaction Biology for CDK/cyclin lines)
Procedure, shortened: as §1

HIPK2 = biological target: T36, HIPK2 (Homo sapiens, UniProt Q9H2X6)
T36 construct: purchased Thermo Fisher Scientific SelectScreen (plus Nanosyn / Reaction Biology for CDK/cyclin lines)
Procedure, shortened: as §1

PRKCZ (PKC zeta) = biological target: T37, PRKCZ (PKC zeta) (Homo sapiens, UniProt Q05513)
T37 construct: purchased Thermo Fisher Scientific SelectScreen (plus Nanosyn / Reaction Biology for CDK/cyclin lines)
Procedure, shortened: as §1

T9 sequence (Q9BXA7 whole entry): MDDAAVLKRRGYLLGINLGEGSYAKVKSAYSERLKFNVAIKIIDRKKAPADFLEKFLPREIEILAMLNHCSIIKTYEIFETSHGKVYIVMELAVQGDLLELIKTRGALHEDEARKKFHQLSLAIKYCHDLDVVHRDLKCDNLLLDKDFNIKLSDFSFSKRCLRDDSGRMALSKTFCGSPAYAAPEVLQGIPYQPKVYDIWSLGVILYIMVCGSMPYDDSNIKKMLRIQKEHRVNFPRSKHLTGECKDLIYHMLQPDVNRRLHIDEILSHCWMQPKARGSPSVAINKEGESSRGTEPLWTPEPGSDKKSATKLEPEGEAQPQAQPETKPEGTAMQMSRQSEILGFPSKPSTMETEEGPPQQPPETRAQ
T21 sequence (P22607 23-806 K650E): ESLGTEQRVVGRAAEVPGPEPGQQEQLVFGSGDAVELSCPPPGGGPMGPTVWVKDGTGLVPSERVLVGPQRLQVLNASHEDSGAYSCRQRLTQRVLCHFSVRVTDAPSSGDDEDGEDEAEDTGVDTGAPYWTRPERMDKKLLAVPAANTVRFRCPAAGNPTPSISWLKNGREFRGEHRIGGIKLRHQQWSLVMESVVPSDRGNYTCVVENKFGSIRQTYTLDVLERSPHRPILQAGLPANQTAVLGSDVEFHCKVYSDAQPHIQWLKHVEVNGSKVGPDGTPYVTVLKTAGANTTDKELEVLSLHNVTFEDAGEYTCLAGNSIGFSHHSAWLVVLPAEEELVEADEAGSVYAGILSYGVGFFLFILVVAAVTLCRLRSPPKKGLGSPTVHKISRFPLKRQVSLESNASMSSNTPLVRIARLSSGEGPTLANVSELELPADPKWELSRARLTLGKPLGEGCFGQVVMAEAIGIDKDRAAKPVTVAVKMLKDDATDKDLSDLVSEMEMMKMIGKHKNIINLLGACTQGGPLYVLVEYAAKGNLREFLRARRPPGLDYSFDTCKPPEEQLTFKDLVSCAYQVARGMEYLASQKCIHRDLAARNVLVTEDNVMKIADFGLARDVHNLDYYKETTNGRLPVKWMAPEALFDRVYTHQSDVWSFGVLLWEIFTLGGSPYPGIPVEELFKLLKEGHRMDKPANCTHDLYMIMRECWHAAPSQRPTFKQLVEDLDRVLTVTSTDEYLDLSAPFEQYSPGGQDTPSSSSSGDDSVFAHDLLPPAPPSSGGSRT
T28 sequence (P16234 24-1089 T674I): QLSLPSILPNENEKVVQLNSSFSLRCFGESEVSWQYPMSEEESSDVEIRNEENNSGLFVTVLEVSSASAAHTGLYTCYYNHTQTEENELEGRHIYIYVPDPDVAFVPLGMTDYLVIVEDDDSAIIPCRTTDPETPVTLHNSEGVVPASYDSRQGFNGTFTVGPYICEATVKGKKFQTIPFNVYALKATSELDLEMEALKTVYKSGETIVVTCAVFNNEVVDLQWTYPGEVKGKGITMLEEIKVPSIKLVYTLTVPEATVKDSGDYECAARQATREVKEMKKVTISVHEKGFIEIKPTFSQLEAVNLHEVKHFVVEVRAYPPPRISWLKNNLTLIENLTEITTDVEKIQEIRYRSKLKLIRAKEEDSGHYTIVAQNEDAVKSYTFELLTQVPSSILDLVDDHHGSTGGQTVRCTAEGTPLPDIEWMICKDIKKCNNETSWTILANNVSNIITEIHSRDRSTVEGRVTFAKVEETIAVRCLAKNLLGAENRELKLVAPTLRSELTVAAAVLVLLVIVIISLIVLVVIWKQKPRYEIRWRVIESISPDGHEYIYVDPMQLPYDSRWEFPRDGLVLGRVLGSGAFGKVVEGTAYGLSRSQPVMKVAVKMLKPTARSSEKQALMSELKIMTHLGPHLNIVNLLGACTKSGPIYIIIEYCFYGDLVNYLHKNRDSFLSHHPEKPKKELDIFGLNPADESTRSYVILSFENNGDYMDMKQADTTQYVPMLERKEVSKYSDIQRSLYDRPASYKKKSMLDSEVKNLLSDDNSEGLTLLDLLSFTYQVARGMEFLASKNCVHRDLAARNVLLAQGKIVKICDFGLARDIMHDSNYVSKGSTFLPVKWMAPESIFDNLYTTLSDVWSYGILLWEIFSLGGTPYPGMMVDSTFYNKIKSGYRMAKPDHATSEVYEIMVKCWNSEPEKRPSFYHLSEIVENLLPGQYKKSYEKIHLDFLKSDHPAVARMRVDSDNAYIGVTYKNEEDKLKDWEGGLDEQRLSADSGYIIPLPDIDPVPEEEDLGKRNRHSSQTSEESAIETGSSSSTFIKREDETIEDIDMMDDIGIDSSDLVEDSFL
T36 sequence (Q9H2X6 whole entry): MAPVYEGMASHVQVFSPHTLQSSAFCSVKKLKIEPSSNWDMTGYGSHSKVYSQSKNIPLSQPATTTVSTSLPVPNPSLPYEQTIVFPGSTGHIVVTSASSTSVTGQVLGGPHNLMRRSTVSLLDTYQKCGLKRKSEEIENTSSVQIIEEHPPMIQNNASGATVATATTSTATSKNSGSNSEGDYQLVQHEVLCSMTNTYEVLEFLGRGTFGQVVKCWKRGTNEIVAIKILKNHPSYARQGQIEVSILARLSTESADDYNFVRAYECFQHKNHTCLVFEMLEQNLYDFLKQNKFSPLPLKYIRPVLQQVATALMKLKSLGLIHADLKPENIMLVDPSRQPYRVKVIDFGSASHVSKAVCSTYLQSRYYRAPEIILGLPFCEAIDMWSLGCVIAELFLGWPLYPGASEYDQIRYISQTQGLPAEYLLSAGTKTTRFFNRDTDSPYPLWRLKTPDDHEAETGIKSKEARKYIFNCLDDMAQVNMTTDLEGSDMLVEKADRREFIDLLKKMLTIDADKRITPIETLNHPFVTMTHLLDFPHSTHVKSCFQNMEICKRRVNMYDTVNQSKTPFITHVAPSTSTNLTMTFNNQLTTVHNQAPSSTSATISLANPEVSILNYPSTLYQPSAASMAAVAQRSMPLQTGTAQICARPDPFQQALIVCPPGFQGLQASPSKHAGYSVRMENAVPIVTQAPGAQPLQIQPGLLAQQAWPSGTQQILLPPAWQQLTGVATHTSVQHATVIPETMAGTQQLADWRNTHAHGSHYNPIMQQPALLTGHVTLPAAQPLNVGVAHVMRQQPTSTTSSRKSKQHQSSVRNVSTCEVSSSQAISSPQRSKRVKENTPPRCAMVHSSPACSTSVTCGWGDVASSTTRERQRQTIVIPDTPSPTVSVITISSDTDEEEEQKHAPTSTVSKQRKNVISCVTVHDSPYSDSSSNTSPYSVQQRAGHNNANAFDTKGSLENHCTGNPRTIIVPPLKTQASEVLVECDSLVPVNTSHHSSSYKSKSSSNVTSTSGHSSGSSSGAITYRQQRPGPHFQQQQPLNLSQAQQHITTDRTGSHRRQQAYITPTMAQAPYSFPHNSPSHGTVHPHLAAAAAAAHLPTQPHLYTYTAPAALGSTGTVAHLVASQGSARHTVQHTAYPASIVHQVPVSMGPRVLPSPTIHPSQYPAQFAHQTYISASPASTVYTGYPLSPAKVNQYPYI
T33 sequence (O00418 whole entry): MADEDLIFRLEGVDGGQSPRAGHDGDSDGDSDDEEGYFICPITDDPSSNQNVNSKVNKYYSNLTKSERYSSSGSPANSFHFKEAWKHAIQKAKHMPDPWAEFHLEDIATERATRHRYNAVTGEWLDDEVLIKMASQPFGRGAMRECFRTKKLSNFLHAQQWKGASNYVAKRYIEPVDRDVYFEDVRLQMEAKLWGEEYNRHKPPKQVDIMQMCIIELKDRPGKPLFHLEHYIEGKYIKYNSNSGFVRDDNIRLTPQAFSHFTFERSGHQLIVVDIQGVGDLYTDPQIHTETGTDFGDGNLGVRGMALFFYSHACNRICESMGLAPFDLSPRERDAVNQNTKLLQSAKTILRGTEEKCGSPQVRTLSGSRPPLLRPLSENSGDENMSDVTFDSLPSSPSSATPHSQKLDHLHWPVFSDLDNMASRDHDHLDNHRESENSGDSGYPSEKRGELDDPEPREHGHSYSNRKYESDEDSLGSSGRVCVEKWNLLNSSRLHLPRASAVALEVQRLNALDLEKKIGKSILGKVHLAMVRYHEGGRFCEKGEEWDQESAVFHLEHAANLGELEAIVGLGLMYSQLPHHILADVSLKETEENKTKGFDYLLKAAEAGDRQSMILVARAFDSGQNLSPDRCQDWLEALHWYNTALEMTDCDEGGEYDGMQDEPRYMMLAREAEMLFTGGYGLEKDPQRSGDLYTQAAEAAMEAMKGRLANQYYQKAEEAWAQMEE
T13 sequence (P22607 23-806): as the sequence (P22607 23-806 K650E) above, with E628K counted along it
T37 sequence (Q05513 whole entry): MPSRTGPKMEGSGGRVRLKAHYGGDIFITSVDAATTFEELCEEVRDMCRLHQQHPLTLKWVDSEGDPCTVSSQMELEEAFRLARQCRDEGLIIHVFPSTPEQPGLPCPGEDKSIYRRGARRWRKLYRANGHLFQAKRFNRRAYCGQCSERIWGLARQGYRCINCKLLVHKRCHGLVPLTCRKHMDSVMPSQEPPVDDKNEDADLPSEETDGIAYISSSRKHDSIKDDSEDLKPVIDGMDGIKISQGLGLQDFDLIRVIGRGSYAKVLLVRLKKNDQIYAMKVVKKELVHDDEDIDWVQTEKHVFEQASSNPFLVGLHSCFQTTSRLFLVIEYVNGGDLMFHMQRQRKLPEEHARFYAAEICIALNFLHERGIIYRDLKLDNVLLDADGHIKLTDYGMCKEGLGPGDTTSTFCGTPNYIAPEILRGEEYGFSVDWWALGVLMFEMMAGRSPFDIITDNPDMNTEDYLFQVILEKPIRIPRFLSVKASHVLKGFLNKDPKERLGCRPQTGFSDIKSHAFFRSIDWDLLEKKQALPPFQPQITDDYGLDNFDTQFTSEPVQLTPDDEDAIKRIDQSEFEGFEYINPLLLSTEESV
T6 sequence (P16234 24-1089 D842V): as the sequence (P16234 24-1089 T674I) above, with I651T, D819V counted along it

NS(=O)(=O)c1ccc(Nc2ncc3cc4n(c3n2)C2(CCCCC2)C(=O)NN4)cc1 [INX-315]
inhibition at 0.1 µM (CDC42 BPG (MRCKG)): 4%
inhibition at 0.1 µM (GRK4): 31%
inhibition at 0.1 µM (PTK6 (Brk)): -1%
inhibition at 0.1 µM (SRC): 8%
inhibition at 0.1 µM (DYRK1A): 1%
inhibition at 0.1 µM (PDGFRA D842V): 13%
inhibition at 0.1 µM (CDK2/cyclin A): 100%
inhibition at 0.1 µM (PHKG1): 4%
inhibition at 0.1 µM (STK22D (TSSK1)): 11%
inhibition at 0.1 µM (NEK4): 15%
inhibition at 0.1 µM (CDK1/cyclin B): 58%
inhibition at 0.1 µM (KIT V559D V654A): 7%
inhibition at 0.1 µM (FGFR3): -3%
inhibition at 0.1 µM (PAK4): 7%
inhibition at 0.1 µM (KSR2): 7%
inhibition at 0.1 µM (RET V804E): 13%
inhibition at 0.1 µM (CSNK2A1 (CK2 alpha 1)): 6%
inhibition at 0.1 µM (ABL1 F317L): 3%
inhibition at 0.1 µM (MARK4): 8%
inhibition at 0.1 µM (BRAF V599E): 7%
inhibition at 0.1 µM (FGFR3 K650E): 31%
inhibition at 0.1 µM (EGFR (ErbB1) C797S): -8%
inhibition at 0.1 µM (FES (FPS)): 17%
inhibition at 0.1 µM (BRSK1 (SAD1)): 16%
inhibition at 0.1 µM (PEAK1): 10%
inhibition at 0.1 µM (NEK9): 2%
inhibition at 0.1 µM (FLT4 (VEGFR3)): 53%
inhibition at 0.1 µM (PDGFRA T674I): -1%
inhibition at 0.1 µM (CSNK1G2 (CK1 gamma 2)): 3%
inhibition at 0.1 µM (MAP3K19 (YSK4)): 13%
inhibition at 0.1 µM (MERTK (cMER)): 20%
inhibition at 0.1 µM (SGK (SGK1)): 6%
inhibition at 0.1 µM (EEF2K): 4%
inhibition at 0.1 µM (PRKCE (PKC epsilon)): 3%
inhibition at 0.1 µM (SBK1): 5%
inhibition at 0.1 µM (HIPK2): 5%
inhibition at 0.1 µM (PRKCZ (PKC zeta)): 10%
